Here are results for 4 compounds from patent US20160297830A1, “NOVEL COMPOUNDS USEFUL FOR THE TREATMENT OF BACTERIAL INFECTIOUS DISEASES” (GALAPAGOS NV, priority 2013, published 2016).

≈ marks a conversion by molar mass, not a printed value. Where two headings read alike, the source gives them in different places.

The target in test [1] is DNA Polymerase IIIα (DnaE) from Staphylococcus aureus (Staphylococcus aureus, UniProt Q6GG04). The test is described as follows: biochemical.
Test [2] deals with H. influenza Hi47 clinical strain, Ampicillin Resistant. The test is described as follows: organism not typed. As to conditions: read-out: MIC Hi47. It is filed as cell-based.
In test [3] the test system is E. coli Ec113 efflux pump KO. Put plainly: microbe, parasite or virus in culture. As to conditions: Escherichia coli, read-out: MIC Ec113 efflux pump KO. It is filed as cell-based.
For test [4], the system named is S. aureus Sa2 clinical strain NCIMB 41953, MRSA. The test is described as follows: microbe, parasite or virus in culture. The class given is cell-based. The note with it: Staphylococcus aureus, read-out: MIC Sa2.
The subject of another test is E. coli Ec1 ATCC 25922. Put plainly: Antibacterial activity assay (MIC), E. coli Ec1. It is filed as cell-based. As to conditions: Escherichia coli.
Test [5] relates to E. coli Ec50 efflux pump KO. The test is described as follows: microbe, parasite or virus in culture. The class given is cell-based. As to conditions: Escherichia coli, read-out: MIC Ec50 efflux pump KO.
In test [6] the test system is H. influenza Hi106 ATCC 51907. Put plainly: organism not typed. It is filed as cell-based. The note with it: read-out: MIC Hi106.
For test [7], the system named is H. influenza Hi3 ATCC 31517. The test is described as follows: organism not typed. It is filed as cell-based. The note with it: read-out: MIC Hi3.
Test [8] concerns H. influenza Hi10 clinical strain. The test is described as follows: organism not typed. As to conditions: read-out: MIC Hi10. It is filed as cell-based.
In another test the target is DNA III Polymerase E (Escherichia coli, UniProt P10443). Put plainly: In vitro activity against DNA III Polymerase E, E. coli. It is filed as biochemical. As to conditions: DNA polymerase III, E. coli; read-out: IC50 semiquantitative scoring, E. coli. The protocol:
A radioactive filterplate assay was used to assess inhibitory activity of compounds on DNA Polymerase IIIα. Five μL of a dilution series of compound, starting from 100 μM highest concentration, 1/5 dilution, was added to the wells of a 96 well plate. Recombinant enzyme was diluted to 0.47 μg/mL in a buffer containing 20 mM Tris pH7.5, 8 mM DTT, 10 mM MgOAc, 0.05% CHAPS and 10 μL thereof was added to the compound dilutions. The reaction was started with the addition of 10 μL substrate in the same buffer, containing activated calf thymus DNA (Sigma, D4522), dATP, dGTP, dCTP, dTTP (Invitrogen) and [α-33P]-dTTP (Perkin Elmer, NEG605H001) at a concentration of 62.5 μg/mL, 50 nM and 7.5 μCi/mL respectively. The mixture was incubated at 30° C. for 120 minutes and terminated by addition of phosphoric acid. Samples were transferred to filter plates and incorporated radioactivity was measured by the Topcount. Data were converted to percent inhibition with respect to positive and negative controls. IC50 values were calculated using Graph Prism™ software.

The next test relates to S. aureus Sa1 ATCC 13709. The test is described as follows: microbe, parasite or virus in culture. As to conditions: Staphylococcus aureus. The class given is cell-based.
For the next test, the system named is S. aureus Sa4 NCTC 6571. Put plainly: Antibacterial activity assay (MIC), S. aureus Sa4. It is filed as cell-based. The note with it: Staphylococcus aureus.
Test [9] has as its system S. aureus Sa26 ATCC 25923. The test is described as follows: Antibacterial activity assay (MIC), S. aureus Sa26. The class given is cell-based. The note with it: Staphylococcus aureus.
[10] abbreviates: ATCC25923, read-out: MIC Sa26 + 10% SH.
The mark [11] stands for this setting: ATCC25923, read-out: MIC Sa26 + 50% SH.

DNA Polymerase IIIα (DnaE) from Staphylococcus aureus, sequence (Q6GG04 1-1022): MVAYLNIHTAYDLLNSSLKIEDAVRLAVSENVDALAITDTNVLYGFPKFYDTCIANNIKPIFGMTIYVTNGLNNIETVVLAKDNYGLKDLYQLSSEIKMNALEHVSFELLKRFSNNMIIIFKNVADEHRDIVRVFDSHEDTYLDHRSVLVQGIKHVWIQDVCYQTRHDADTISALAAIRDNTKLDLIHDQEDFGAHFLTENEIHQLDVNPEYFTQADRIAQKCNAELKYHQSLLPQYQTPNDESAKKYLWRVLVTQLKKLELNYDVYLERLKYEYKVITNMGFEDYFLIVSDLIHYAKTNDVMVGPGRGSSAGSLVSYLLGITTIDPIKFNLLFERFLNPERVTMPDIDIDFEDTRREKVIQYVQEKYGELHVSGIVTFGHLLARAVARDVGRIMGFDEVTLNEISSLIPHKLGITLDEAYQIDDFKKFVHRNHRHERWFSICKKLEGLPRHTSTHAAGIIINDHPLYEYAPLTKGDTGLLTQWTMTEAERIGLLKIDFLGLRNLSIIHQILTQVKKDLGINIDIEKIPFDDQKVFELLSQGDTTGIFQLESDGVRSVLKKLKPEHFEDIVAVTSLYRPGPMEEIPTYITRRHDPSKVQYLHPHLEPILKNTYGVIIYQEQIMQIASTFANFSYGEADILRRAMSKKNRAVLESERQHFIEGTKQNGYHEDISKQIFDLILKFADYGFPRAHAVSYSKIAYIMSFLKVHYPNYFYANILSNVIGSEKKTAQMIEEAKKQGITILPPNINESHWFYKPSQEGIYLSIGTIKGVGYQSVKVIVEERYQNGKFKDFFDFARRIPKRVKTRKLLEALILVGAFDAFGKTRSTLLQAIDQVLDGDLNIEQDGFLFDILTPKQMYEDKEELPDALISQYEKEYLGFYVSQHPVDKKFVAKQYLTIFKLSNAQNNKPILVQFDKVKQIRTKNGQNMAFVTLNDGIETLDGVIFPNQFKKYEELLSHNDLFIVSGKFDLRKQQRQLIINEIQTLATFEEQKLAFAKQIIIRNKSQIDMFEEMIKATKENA
DNA III Polymerase E, sequence (P10443 whole entry): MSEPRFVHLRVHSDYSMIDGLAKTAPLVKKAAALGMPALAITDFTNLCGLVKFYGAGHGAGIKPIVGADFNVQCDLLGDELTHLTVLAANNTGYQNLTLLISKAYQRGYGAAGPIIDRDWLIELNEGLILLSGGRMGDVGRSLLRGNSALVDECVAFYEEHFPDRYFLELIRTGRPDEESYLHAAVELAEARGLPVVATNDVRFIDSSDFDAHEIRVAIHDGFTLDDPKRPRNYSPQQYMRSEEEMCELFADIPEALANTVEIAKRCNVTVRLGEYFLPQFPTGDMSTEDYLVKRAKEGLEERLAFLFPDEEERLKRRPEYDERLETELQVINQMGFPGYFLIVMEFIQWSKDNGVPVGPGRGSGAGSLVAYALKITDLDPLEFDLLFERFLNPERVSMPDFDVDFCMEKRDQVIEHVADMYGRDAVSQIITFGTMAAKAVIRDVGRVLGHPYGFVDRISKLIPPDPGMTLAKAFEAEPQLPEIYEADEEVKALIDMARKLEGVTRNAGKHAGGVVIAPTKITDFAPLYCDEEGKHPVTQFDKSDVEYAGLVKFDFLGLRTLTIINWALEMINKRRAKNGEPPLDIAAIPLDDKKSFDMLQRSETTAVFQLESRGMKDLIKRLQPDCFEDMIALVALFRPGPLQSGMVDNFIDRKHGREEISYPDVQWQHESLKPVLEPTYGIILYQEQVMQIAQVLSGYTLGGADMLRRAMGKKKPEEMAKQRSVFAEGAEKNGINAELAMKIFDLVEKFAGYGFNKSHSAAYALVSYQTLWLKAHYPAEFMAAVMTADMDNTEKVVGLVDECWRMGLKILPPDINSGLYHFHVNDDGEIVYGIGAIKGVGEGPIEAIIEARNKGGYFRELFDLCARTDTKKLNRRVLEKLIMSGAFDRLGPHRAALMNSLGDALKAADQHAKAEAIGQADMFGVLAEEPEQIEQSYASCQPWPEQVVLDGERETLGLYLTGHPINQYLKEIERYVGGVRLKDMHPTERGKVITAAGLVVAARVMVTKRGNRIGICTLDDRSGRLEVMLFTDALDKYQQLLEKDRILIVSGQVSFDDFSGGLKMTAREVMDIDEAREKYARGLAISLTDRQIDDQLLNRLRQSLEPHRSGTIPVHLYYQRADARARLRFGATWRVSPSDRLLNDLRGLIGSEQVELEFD

Regarding `COC[C@@H]1[C@@H](O)[C@@H]2[C@H]3CC[C@@H]4[C@@H](COC)C(=O)O[C@H]([C@H](O)COC)[C@H](C)/C=C(\C)[C@@]24O[C@H]3[C@@H]1OC(=O)c1ccc[nH]1` [Compound 16, 4,5-Dihydro-8-O-1H-pyrrole-2′-carbonylbranimycin], the 50% inhibitory concentration (IC50) is 1.73 to 1730 nM in [1] and more than 17300 nM at DNA III Polymerase E. Besides, the MIC in [2] was more than 64 µg/mL; in test [3] it was 4 µg/mL (≈ 6.92 µM); in test [4] it was 4 µg/mL (≈ 6.92 µM); with E. coli Ec1 ATCC 25922 (ATCC25922, read-out: MIC Ec1) it was more than 64 µg/mL; in test [5] it was more than 64 µg/mL; in [6], more than 64 µg/mL. The MIC in test [7] is more than 64 µg/mL; in test [8] it was more than 64 µg/mL; in the test with S. aureus Sa1 ATCC 13709 (ATCC13709, read-out: MIC Sa1), 8 µg/mL (≈ 13.8 µM); with S. aureus Sa4 NCTC 6571 (NCTC6571, read-out: MIC Sa4) it was 4 µg/mL (≈ 6.92 µM); in test [9] (ATCC25923, read-out: MIC Sa26), 8 µg/mL (≈ 13.8 µM); in test [9] (setting [10]), 8 µg/mL. For the same compound, the MIC in test [9] (setting [11]) came to 8 µg/mL.
Take `COCC[C@H]1OC(=O)[C@H](COC)[C@H]2C=C[C@H]3[C@H]4O[C@]2(/C(C)=C/[C@H]1C)[C@@H]3[C@H](O)[C@@H](COC)[C@H]4O` [Compound 17, 17-Deoxybranimycin]: the IC50 in test [1] (DNA polymerase III, S. aureus, read-out: IC50 semiquantitative scoring, S. aureus) is 2.14 to 2140 nM; at DNA III Polymerase E, more than 21400 nM. The MIC in test [2] is more than 64 µg/mL; in [3], 8 µg/mL (≈ 17.1 µM); in test [4], more than 64 µg/mL; in the test with E. coli Ec1 ATCC 25922 (ATCC25922, E. coli Ec1 ATCC 25922, sensitive strain, read-out: MIC Ec1), more than 64 µg/mL; in test [5] it was more than 64 µg/mL; in test [6] it was more than 64 µg/mL. Besides, the MIC in test [7] is more than 64 µg/mL; in test [8], more than 64 µg/mL; with S. aureus Sa1 ATCC 13709 (ATCC13709, S. aureus Sa1 ATCC 13709, sensitive strain, Mueller-Hinton Broth, 37° C., read-out: MIC Sa1), more than 64 µg/mL; in the test on S. aureus Sa4 NCTC 6571 (NCTC6571, S. aureus Sa4 NCTC 6571, sensitive strain, read-out: MIC Sa4) it was more than 64 µg/mL; in test [9] (ATCC25923, read-out: MIC Sa26 + 10% SH, S. aureus Sa26 + 10% SH), more than 64 µg/mL; in test [9] (ATCC25923, read-out: MIC Sa26 + 50% SH, S. aureus Sa26 + 50% SH), more than 64 µg/mL. Besides, in [9] (ATCC25923, S. aureus Sa26 ATCC 25923, sensitive strain, Mueller-Hinton Broth, 37° C., read-out: MIC Sa26), the MIC is more than 64 µg/mL.
In the case of `COC[C@@H]1[C@@H](O)[C@@H]2[C@H]3C=C[C@@H]4[C@@H](COC)C(=O)O[C@H]([C@@H](COC)OC)[C@H](C)/C=C(\C)[C@@]24O[C@H]3[C@@H]1OC(=O)c1ccc[nH]1` [Compound 18, 17-O-Methyl-8-O-1H-pyrrole-2′-carbonylbranimycin], the IC50 in test [1] is 1.7 to 1700 nM; on DNA III Polymerase E, 1700 to 17000 nM. Besides, the MIC was more than 64 µg/mL in [2]; 2 µg/mL (≈ 3.39 µM) in test [3]; 1 µg/mL (≈ 1.7 µM) in [4]; more than 64 µg/mL in the test on E. coli Ec1 ATCC 25922 (ATCC25922, read-out: MIC Ec1); more than 64 µg/mL in [5]; more than 64 µg/mL in [6]. For the same compound, the MIC is more than 64 µg/mL in [7]; more than 64 µg/mL in test [8]; 1 µg/mL (≈ 1.7 µM) in the test on S. aureus Sa1 ATCC 13709 (ATCC13709, read-out: MIC Sa1); 1 µg/mL (≈ 1.7 µM) with S. aureus Sa4 NCTC 6571 (NCTC6571, read-out: MIC Sa4); 1 µg/mL (≈ 1.7 µM) in test [9] (ATCC25923, read-out: MIC Sa26); 1 µg/mL in test [9] (setting [10]). Moreover, in [9] (setting [11]), the MIC amounted to 2 µg/mL.
Consider `COCC(=O)[C@H]1OC(=O)[C@H](COC)[C@H]2C=C[C@H]3[C@H]4O[C@]2(/C(C)=C/[C@H]1C)[C@@H]3[C@H](O)[C@@H](COC)[C@H]4OC(=O)c1ccc[nH]1` [Compound 20, 18-Deoxy-18-oxo-8-O-1H-pyrrole-2′-carbonylbranimycin], for which the IC50 in test [1] was 1.74 to 1740 nM; on DNA III Polymerase E, more than 17400 nM. Further, the MIC in test [2] is more than 64 µg/mL; in test [3] it was 16 µg/mL (≈ 27.9 µM); in [4], 2 µg/mL (≈ 3.49 µM); in the test with E. coli Ec1 ATCC 25922 (ATCC25922, read-out: MIC Ec1), more than 64 µg/mL; in test [5] it was more than 64 µg/mL; in test [6], more than 64 µg/mL. In addition, the MIC was more than 64 µg/mL in [7]; more than 64 µg/mL in [8]; 8 µg/mL (≈ 13.9 µM) in the test with S. aureus Sa1 ATCC 13709 (ATCC13709, read-out: MIC Sa1); 4 µg/mL (≈ 6.97 µM) in the test with S. aureus Sa4 NCTC 6571 (NCTC6571, read-out: MIC Sa4); 8 µg/mL (≈ 13.9 µM) in test [9] (ATCC25923, read-out: MIC Sa26); 16 µg/mL in test [9] (setting [10]). Moreover, the MIC in [9] (setting [11]) is 32 µg/mL.
